From patent US12145927B2 (BRISTOL-MYERS SQUIBB COMPANY, priority 2018, dated 2024) come the findings set out here.

pIC50: −log10 of the molar value.

Test [1] concerns the target T1, indoleamine 2,3-dioxygenase (IDO) (Homo sapiens, UniProt P14902).
T1 construct: replaced with media containing IFNγ (#285-IF/CF, R&D Systems) at a final concentration of 25 ng/mL; endogenous in cells; host or cells: HeLa (ATCC CCL-2), IFNγ-stimulated
Kind of test: HeLa cell-based indoleamine 2,3-dioxygenase (IDO) assay (IDO1 HeLa). As to conditions: HeLa cells, IFNγ 25 ng/mL, 48 hour incubation; kynurenine by absorbance at 480 nm. As for the experimental part: Assessment of inhibitor activity in HeLa cell-based indoleamine 2,3-dioxygenase (IDO) assay:
HeLa (ATCC® CCL-2) cells were obtained from the ATCC® and cultured in Dulbecco's Modified Eagle Medium supplemented with 4.5 g/L glucose, […] (#10-013-CV, Corning), 2 mM L-alanyl-L-glutamine dipeptide (#35050-061, Gibco), 100U/mL penicillin, 100 μg/mL streptomycin (#SV30010, HyClone) and 10% fetal bovine serum (#SH30071.03 HyClone). Cells were maintained in a humidified incubator at 37° C. in 5% CO2.
IDO activity was assessed as a function of kynurenine production as follows: HeLa cells were seeded in a 96-well culture plate at a density of 5,000 cells/well and allowed to equilibrate overnight. After 24 hours, the media was aspirated and replaced with media containing IFNγ (#285-IF/CF, R&D Systems) at a final concentration of 25 ng/mL. A serial dilution of each test compound was added to the cells in a total volume of 200 μL of culture medium. After a further 48 hour incubation, 170 μL of supernatant was transferred from each well to a fresh 96-well plate. 12.1 μL of 6.1N trichloroacetic acid (#T0699, Sigma-Aldrich) was added to each well and mixed, followed by incubation at 65° C. for 20 minutes to hydrolyze N-formylkynurenine, the product of indoleamine 2,3-dioxygenase, to kynurenine. The reaction mixture was then centrifuged for 10 mins at 500×g to sediment the precipitate. 100 μL of the supernatant was transferred from each well to a fresh 96-well plate. 100 μl of 2% (w/v) p-dimethylaminobenzaldehyde (#15647-7, Sigma-Aldrich) in acetic acid (#A6283, Sigma-Aldrich) was added to each well mixed and incubated at RT for 20 mins. Kynurenine concentrations were determined by measuring absorbance at 480 nm and calibrating against an L-kynurenine (#K8625, Sigma-Aldrich) standard curve using a SPECTRAMAX® M2e microplate reader (Molecular Devices). The percentage activity at each inhibitor concentration was determined and IC50 values assessed using nonlinear regression.

A further test concerns the target T2, human IDO1 (Homo sapiens, UniProt P14902).
T2 construct: expressed in transfected cells
Kind of test: IDO inhibition assay in human IDO1/HEK293 cells (IDO1 HEK Human). The settings on record: HEK293 cells stably expressing human IDO1; 20 hours incubation; absorbance at 490 nm after Ehrlich reagent. It is filed as cell-based. An outline of the steps: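 HEK293 clones stably expressing human IDO1 (10,000 cells/well, phenol red-free RPMI, 10% FBS) were treated with compound for 20 hours at 37° C. After 0.2% TCA and 30 min at 50° C., kynurenine was read with Ehrlich reagent at 490 nm. IC50 was normalised to DMSO (0%) and 500 nM reference standard (100%).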

T2 sequence (P14902 whole entry): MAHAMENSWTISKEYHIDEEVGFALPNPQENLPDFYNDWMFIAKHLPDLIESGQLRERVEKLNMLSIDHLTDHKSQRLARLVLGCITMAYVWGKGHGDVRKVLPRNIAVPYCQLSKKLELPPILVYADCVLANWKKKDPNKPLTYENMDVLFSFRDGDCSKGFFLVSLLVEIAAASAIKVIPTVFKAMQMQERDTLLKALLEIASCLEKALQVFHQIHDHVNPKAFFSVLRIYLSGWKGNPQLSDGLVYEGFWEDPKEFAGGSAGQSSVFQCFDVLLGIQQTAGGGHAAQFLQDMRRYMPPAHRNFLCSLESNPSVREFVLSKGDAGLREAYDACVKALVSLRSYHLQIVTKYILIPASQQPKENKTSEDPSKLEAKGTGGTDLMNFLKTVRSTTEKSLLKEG
T1 sequence (P14902 whole entry): as above

As usually defined, the pIC50 is −log10 of the IC50, conventionally taken in molar units. Higher therefore signals a low IC50. In the case of `CC1=CC(c2ccccc2)c2cc(-c3ccccc3-c3nnn[nH]3)cc(NC(=O)Nc3ccc(C)cc3)c2OC1` (racemic) [Example 92, (+/−)-1-(7-(2-(1H-tetrazol-5-yl)phenyl)-3-methyl-5-phenyl-2,5-dihydrobenzo[b]oxepin-9-yl)-3-(p-tolyl)urea], in test [1], the negative logarithm of the IC50 (pIC50) is 8.14. `Cc1ccc(-c2nnn[nH]2)c(-c2cc(Nc3ccc4nc(C)sc4c3)c3c(c2)C(c2ccccc2)CCCO3)c1` (single isomer, unassigned) [Example 74, 2-methyl-N-(7-(5-methyl-2-(1H-tetrazol-5-yl)phenyl)-5-phenyl-2,3,4,5-tetrahydrobenzo[b]oxepin-9-yl)benzo[d]thiazol-6-amine]: the pIC50 in test [1] was 8.29; on human IDO1, 8.11. Consider `Cc1ccc(NC(=O)Nc2cc(-c3ccccc3-c3nn[nH]n3)cc3c2OCC=CC3c2ccccc2)cc1` (racemic) [Example 87, (+/−)-1-(7-(2-(1H-tetrazol-5-yl)phenyl)-5-phenyl-2,5-dihydrobenzo[b]oxepin-9-yl)-3-(p-tolyl)urea], for which, in test [1], the negative logarithm of the IC50 (pIC50) was 7.96.

Consider `Cc1ccc(NC(=O)Nc2cc(-c3ccccc3-c3noc(=O)[nH]3)cc3c2OCCCC3c2ccccc2)cc1` (single isomer, unassigned) [Example 67, 1-(7-(2-(5-oxo-4,5-dihydro-1,2,4-oxadiazol-3-yl)phenyl)-5-phenyl-2,3,4,5-tetrahydrobenzo[b]oxepin-9-yl)-3-(p-tolyl)urea], for which the values for the pIC50 (in test [1]; at human IDO1) were 9.00 and 8.96, respectively. In turn, `O=C(Nc1ccc(Cl)cc1F)Nc1cc(-c2ccccc2-c2nnn[nH]2)cc2c1OCC=CC2c1ccccc1` (racemic) [Example 105, (+/−)-1-(7-(2-(1H-tetrazol-5-yl)phenyl)-5-phenyl-2,5-dihydrobenzo[b]oxepin-9-yl)-3-(4-chloro-2-fluorophenyl)urea] had a negative-log IC50 (pIC50) in test [1] of 7.26. For the molecule `Cc1ccc(NC(=O)Nc2cc(-c3ccccc3-c3nnn[nH]3)cc3c2OCCCC3C2CC2)cc1` (single isomer, unassigned) [36 (En. 1), 1-(7-(2-(1H-tetrazol-5-yl)phenyl)-5-cyclopropyl-2,3,4,5-tetrahydrobenzo[b]oxepin-9-yl)-3-(p-tolyl)urea], the pIC50 in test [1] was 7.83; against human IDO1 it was 7.98. For `Cc1ccc(NC(=O)Nc2cc(-c3ccccc3-c3nnn[nH]3)cc3c2OCCCC3C2CC2)cc1` (single isomer, unassigned) [36 (En. 2), 1-(7-(2-(1H-tetrazol-5-yl)phenyl)-5-cyclopropyl-2,3,4,5-tetrahydrobenzo[b]oxepin-9-yl)-3-(p-tolyl)urea], in that order: 8.44 and 8.62.

Molecule `O=C(Nc1ccc(Br)cc1)Nc1cc(-c2ccccc2-c2nnn[nH]2)cc2c1OCC=CC2c1ccccc1` (racemic) [Example 106, (+/−)-1-(7-(2-(1H-tetrazol-5-yl)phenyl)-5-phenyl-2,5-dihydrobenzo[b]oxepin-9-yl)-3-(4-bromophenyl)urea] gave a pIC50 in test [1] of 7.52. Regarding `Cc1ccc(NC(=O)Nc2cc(-c3ccccc3-c3nnn[nH]3)cc3c2OCCCC3C(C)C)cc1` (single isomer, unassigned) [24 (En. 2), 1-(7-(2-(1H-tetrazol-5-yl)phenyl)-5-isopropyl-2,3,4,5-tetrahydrobenzo[b]oxepin-9-yl)-3-(p-tolyl)urea], the negative logarithm of the IC50 (pIC50) in test [1] was 6.79; at human IDO1 it was 8.20. Take `Cc1ccc(NC(=O)Nc2cc(-c3ccccc3-c3nnn[nH]3)cc3c2OCC(F)(F)CC3c2ccccc2)cc1` (racemic) [Example 110, (+/−) 1-(7-(2-(1H-tetrazol-5-yl)phenyl)-3,3-difluoro-5-phenyl-2,3,4,5-tetrahydrobenzo[b]oxepin-9-yl)-3-(p-tolyl)urea]: the pIC50 was 7.61 in test [1] and 7.30 at human IDO1.

Turning to `Cc1ccc(NC(=O)Nc2cc(-c3ccccc3-c3nnn[nH]3)cc3c2OCCCC3C(C)C)cc1` (single isomer, unassigned) [24 (En. 1), 1-(7-(2-(1H-tetrazol-5-yl)phenyl)-5-isopropyl-2,3,4,5-tetrahydrobenzo[b]oxepin-9-yl)-3-(p-tolyl)urea], the pIC50 in test [1] is 7.54; against human IDO1, 9.01. With `Fc1cc(Nc2cc(-c3ccccc3-c3nnn[nH]3)cc3c2OCCCC3c2ccccc2)ccc1Cl` (single isomer, unassigned) [Example 72, 7-(2-(1H-tetrazol-5-yl)phenyl)-N-(4-chloro-3-fluorophenyl)-5-phenyl-2,3,4,5-tetrahydrobenzo[b]oxepin-9-amine], the pIC50 in test [1] was 7.62. For the molecule `Cc1ccc(NC(=O)Nc2cc(-c3ccccc3-c3nn[nH]n3)cc3c2OCCCC3c2ccccc2)cc1` (centres unmarked) [Example 1, 1-(7-(2-(1H-tetrazol-5-yl)phenyl)-5-phenyl-2,3,4,5-tetrahydrobenzo[b]oxepin-9-yl)-3-(p-tolyl)urea], the pIC50 is 7.86 in test [1] and 7.73 against human IDO1. Turning to `Cc1ccc(NC(=O)Nc2cc(-c3ccccc3-c3nnn[nH]3)cc3c2OC[C@@H](C)C[C@H]3c2ccccc2)cc1` (racemic) [Example 109, (+/−)-1-((cis)-7-(2-(1H-tetrazol-5-yl)phenyl)-3-methyl-5-phenyl-2,3,4,5-tetrahydrobenzo[b]oxepin-9-yl)-3-(p-tolyl)urea], the pIC50 in test [1] is 8.23.

Regarding `COCC(CC(=O)O)c1cc(Nc2ccc(C#N)cc2)c2c(c1)C(C1CC1)CCCO2` (single isomer, unassigned) [131 (dia. 2), 3-(9-(4-Cyanophenylamino)-5-cyclopropyl-2,3,4,5-tetrahydrobenzo[b]oxepin-7-yl)-4-methoxybutanoic acid], the negative-log IC50 (pIC50) in test [1] is 8.68; against human IDO1, 8.70. In turn, `Cc1ccc(NC(=O)Nc2cc(-c3cc(F)ccc3C(=O)O)cc3c2OCCCC3c2ccccc2)cc1` (racemic) [Example 108, (+/−)-4-fluoro-2-(5-phenyl-9-(3-(p-tolyl)ureido)-2,3,4,5-tetrahydrobenzo[b]oxepin-7-yl)benzoic acid] had a pIC50 in test [1] of 6.79. Turning to `CCc1ccc(NC(=O)Nc2cc(-c3ccccc3-c3nnn[nH]3)cc3c2OCC=CC3CCC(F)(F)F)cc1` (racemic) [Example 107, (+/−)-1-(7-(2-(1H-tetrazol-5-yl)phenyl)-5-(3,3,3-trifluoropropyl)-2,5-dihydrobenzo[b]oxepin-9-yl)-3-(4-ethylphenyl)urea], the negative logarithm of the IC50 (pIC50) in test [1] was 7.84.
